Reference: patent EP0554004A2, “Cephem compounds and antibacterial agents” (KATAYAMA SEIYAKUSYO CO. Ltd., priority 1992, dated 1993)
Read-outs that look alike come from different tables or passages of the source.

Key:
E. cloacae ATCC13407 = assay: MIC against standard strains (Test Example 3); format: cell-based; conditions: Enterobacter cloacae
Description: (§1) By using each test strain cultured overnight at 37°C in a Muller-Hinton broth, there was prepared a bacterial solution with a bacterial cell population of 1 x 10^6 CFU/mi of the same bouillon. The bacterial solution was inoculated into the Muller-Hinton agar media each containing respectively one test agent and, after overnight incubation at 37°C, the minimum concentration that inhibited growth of the bacteria was determined and shown as MIC also in Table 1.
(§2) The minimum growth inhibitory concentration was determined for each of the 21 standard strains shown in Table 3, according to the same method as used in Test Example 1.
(§3) In the test, FMOX (flomoxef), CTM (cefotiam) and CEZ (cefazolin) were used as control agents.

P. mirabilis IFO3849 = assay: MIC against standard strains (Test Example 3); format: cell-based; conditions: Proteus mirabilis
Description: as §1, §2, §3

S. aureus 195 = assay: MIC against standard strains (Test Example 3); format: cell-based; conditions: Staphylococcus aureus
Description: as §1, §2, §3

S. aureus Smith = assay: MIC against standard strains (Test Example 3); format: cell-based; conditions: Staphylococcus aureus
Description: as §1, §2, §3

K. pneumoniae IFO3317 = assay: MIC against standard strains (Test Example 3); format: cell-based; conditions: Klebsiella pneumoniae
Description: as §1, §2, §3

E. coli CSH2 (RE45) = assay: MIC against standard strains (Test Example 3); format: cell-based; conditions: Escherichia coli
Description: as §1, §2, §3

S. marcescens IAM1184 = assay: MIC against standard strains (Test Example 3); format: cell-based; conditions: Serratia marcescens
Description: as §1, §2, §3

M. Morganii IFO3848 = assay: MIC against standard strains (Test Example 3); format: cell-based; conditions: Morganella morganii
Description: as §1, §2, §3

K. pneumoniae No. 42 = assay: MIC against standard strains (Test Example 3); format: cell-based; conditions: Klebsiella pneumoniae
Description: as §1, §2, §3

A. calcoaceticos T59 = assay: MIC against standard strains (Test Example 3); format: cell-based
Description: as §1, §2, §3

E. coli CSH2 (RK1) = assay: MIC against standard strains (Test Example 3); format: cell-based; conditions: Escherichia coli
Description: as §1, §2, §3

S. aureus 209p JC-1 = assay: MIC against standard strains (Test Example 3); format: cell-based; conditions: Staphylococcus aureus
Description: as §1, §2, §3

S. epidemidis IAM1296 = assay: MIC against standard strains (Test Example 3); format: cell-based
Description: as §1, §2, §3

E. coli NIHJ JC-2 = assay: MIC against standard strains (Test Example 3); format: cell-based; conditions: Escherichia coli, NIHJJC2
Description: as §1, §2, §3

B. subtilis ATCC6633 = assay: MIC against standard strains (Test Example 3); format: cell-based; conditions: Bacillus subtilis
Description: as §1, §2, §3

C. freundii ATCC8090 = assay: MIC against standard strains (Test Example 3); format: cell-based; conditions: Citrobacter freundii
Description: as §1, §2, §3

A. faecalis ATCC3750 = assay: MIC against standard strains (Test Example 3); format: cell-based; conditions: Alcaligenes faecalis
Description: as §1, §2, §3

S. aureus 167 = assay: MIC against standard strains (Test Example 3); format: cell-based; conditions: Staphylococcus aureus
Description: as §1, §2, §3

M. luteus ATCC 9341 = assay: MIC against standard strains (Test Example 3); format: cell-based; conditions: Micrococcus luteus, ATCC9341
Description: as §1, §2, §3

P. aeruginosa NCTC10490 = assay: MIC against standard strains (Test Example 3); format: cell-based; conditions: Pseudomonas aeruginosa
Description: as §1, §2, §3

P. vulugaris OX-19 = assay: MIC against standard strains (Test Example 3); format: cell-based
Description: as §1, §2, §3

clinically isolated MRSA = assay: Antibacterial potency against clinically isolated MRSA (Test Example 4); format: cell-based, methicillin-resistant Staphylococcus aureus; conditions: Staphylococcus aureus
Description: 52 strains of clinically isolated MRSA were used, and MIC was determined for each of the strains according to the standard method of the Japan Chemotherapical Society as in Test Example 1. The minimum growth inhibitory concentration which inhibited growth of 50% of the strains tested was expressed as MIC50 (µg/ml), and the minimum growth inhibitory concentration which inhibited growth of 90% of the strains was expressed as MIC90 (µg/ml).
MIC 50 and MIC 90 were determined for each of the 52 strains of clinically isolated MRSA according to the same method as used in Test Example 2.
VCM (vancomycin) was used as control agent.

[1] = E. cloacae ATCC13407 (Test Example 3), read-out: MIC
[2] = P. mirabilis IFO3849 (Test Example 3), read-out: MIC
[3] = S. aureus 195 (MRSA) (Test Example 3), read-out: MIC
[4] = S. aureus Smith (Test Example 3), read-out: MIC
[5] = K. pneumoniae IFO3317 (Test Example 3), read-out: MIC
[6] = S. marcescens IAM1184 (Test Example 3), read-out: MIC
[7] = M. Morganii IFO3848 (Test Example 3), read-out: MIC
[8] = K. pneumoniae No. 42 (Test Example 3), read-out: MIC
[9] = A. calcoaceticos T59 (Test Example 3), read-out: MIC
[10] = S. aureus 209p JC-1 (Test Example 3), read-out: MIC
[11] = S. epidemidis IAM1296 (Test Example 3), read-out: MIC
[12] = E. coli NIHJ JC-2 (Test Example 3), read-out: MIC
[13] = B. subtilis ATCC6633 (Test Example 3), read-out: MIC
[14] = C. freundii ATCC8090 (Test Example 3), read-out: MIC
[15] = A. faecalis ATCC3750 (Test Example 3), read-out: MIC
[16] = S. aureus 167 (MRSA) (Test Example 3), read-out: MIC
[17] = M. luteus ATCC 9341 (Test Example 3), read-out: MIC
[18] = P. aeruginosa NCTC10490 (Test Example 3), read-out: MIC
[19] = P. vulugaris OX-19 (Test Example 3), read-out: MIC
[20] = 52 strains of clinically isolated MRSA, concentration inhibiting growth of 50% of the strains (Test Example 4), read-out: MIC50
[21] = 52 strains of clinically isolated MRSA, concentration inhibiting growth of 90% of the strains (Test Example 4), read-out: MIC90

Work on `CNc1nc(-c2ccc[n+](CC3=C(C(=O)[O-])N4C(=O)[C@@H](NC(=O)/C(=N\O)c5csc(N)n5)[C@H]4SC3)c2)cs1` [Compound (10), 7β-[2-(2-aminothiazol-4-yl)-2-syn-hydroxyiminoacetamido)-3-[[3-(2-methylaminothiazol-4-yl)-1-pyridinio]methyl]-3-cephem-4-carboxylic acid chloride] yielded an MIC (E. cloacae ATCC13407; [1]) of 12.5 µg/mL, an MIC (P. mirabilis IFO3849; [2]) of 3.13 µg/mL and an MIC (S. aureus 195; [3]) of 3.13 µg/mL. It also gave an MIC (S. aureus Smith; [4]) of 0.78 µg/mL, an MIC (K. pneumoniae IFO3317; [5]) of 0.39 µg/mL and an MIC (E. coli CSH2 (RE45)) of 1.56 µg/mL. The MIC (S. marcescens IAM1184; [6]) was 3.13 µg/mL, the MIC (M. Morganii IFO3848; [7]) was 0.2 µg/mL and the MIC (K. pneumoniae No. 42; [8]) was 6.25 µg/mL. For the same molecule, the MIC (A. calcoaceticos T59; [9]) was 50 µg/mL, the MIC (E. coli CSH2 (RK1)) was 3.13 µg/mL and the MIC (S. aureus 209p JC-1; [10]) was 0.39 µg/mL. For the same molecule, the MIC (S. epidemidis IAM1296; [11]) was 0.2 µg/mL, the MIC (E. coli NIHJ JC-2; [12]) was 1.56 µg/mL and the MIC (B. subtilis ATCC6633; [13]) was 0.39 µg/mL. It also gave an MIC (C. freundii ATCC8090; [14]) of 1.56 µg/mL, an MIC (A. faecalis ATCC3750; [15]) of 6.25 µg/mL and an MIC (S. aureus 167; [16]) of 12.5 µg/mL. For the same molecule, the MIC (M. luteus ATCC 9341; [17]) was 0.1 µg/mL, the MIC (P. aeruginosa NCTC10490; [18]) was 25 µg/mL and the MIC (P. vulugaris OX-19; [19]) was 0.39 µg/mL. The MIC50 (clinically isolated MRSA; [20]) was 4.04 µg/mL and the MIC90 (clinically isolated MRSA; [21]) was 8.37 µg/mL.
`NC(=O)Oc1ccc[n+](CC2=C(C(=O)[O-])N3C(=O)[C@@H](NC(=O)/C(=N\O)c4csc(N)n4)[C@H]3SC2)c1` [Compound (8), 7β-[2-(2-aminothiazol-4-yl)-2-syn-hydroxyiminoacetamido]-3-[(3-carbamoyloxy-1-pyridinio)methyl]-3-cephem-4-carboxylic acid chloride] gave an MIC (E. cloacae ATCC13407; ATCC13407) of 1.56 µg/mL, an MIC (P. mirabilis IFO3849; IFO3849) of 0.1 µg/mL and an MIC (S. aureus 195; MRSA) of 25 µg/mL. The MIC (S. aureus Smith) was 1.56 µg/mL, the MIC (K. pneumoniae IFO3317; IFO3317) was 0.1 µg/mL and the MIC (E. coli CSH2 (RE45)) was 0.2 µg/mL. It also gave an MIC (S. marcescens IAM1184; IAM1184) of 0.39 µg/mL, an MIC (M. Morganii IFO3848; IFO3848) of 0.05 µg/mL and an MIC (K. pneumoniae No. 42; NO.42) of 0.39 µg/mL. It also gave an MIC (A. calcoaceticos T59) of 25 µg/mL, an MIC (E. coli CSH2 (RK1)) of 0.39 µg/mL and an MIC (S. aureus 209p JC-1; 209P) of 0.78 µg/mL. The MIC (S. epidemidis IAM1296) was 0.39 µg/mL, the MIC (E. coli NIHJ JC-2) was 0.1 µg/mL and the MIC (B. subtilis ATCC6633; ATCC6633) was 0.39 µg/mL. It also gave an MIC (C. freundii ATCC8090; ATCC8090) of 0.39 µg/mL, an MIC (A. faecalis ATCC3750; ATCC3750) of 0.78 µg/mL and an MIC (S. aureus 167; MRSA) of 50 µg/mL. It also gave an MIC (M. luteus ATCC 9341) of 0.1 µg/mL, an MIC (P. aeruginosa NCTC10490; NCTC10490) of 100 µg/mL and an MIC (P. vulugaris OX-19) of 0.2 µg/mL. The MIC50 (clinically isolated MRSA; MRSA) was 8.34 µg/mL and the MIC90 (clinically isolated MRSA; MRSA) was 37.9 µg/mL.
For `CCN(CC)C(=O)c1ccc[n+](CC2=C(C(=O)[O-])N3C(=O)[C@@H](NC(=O)/C(=N\O)c4csc(N)n4)[C@H]3SC2)c1` [Compound (14), 7β-[2-(2-aminothiazol-4-yl)-2-syn-hydroxyiminoacetamido]-3-[(3-N,N-diethylcarbamoyl-I-pyridinio)methyl]-3-cephem-4-carboxylic acid chloride], the MIC (E. cloacae ATCC13407; [1]) was 3.13 µg/mL, the MIC (P. mirabilis IFO3849; [2]) was 1.56 µg/mL and the MIC (S. aureus 195; [3]) was 6.25 µg/mL. The MIC (S. aureus Smith; [4]) was 0.78 µg/mL, the MIC (K. pneumoniae IFO3317; [5]) was 0.78 µg/mL and the MIC (E. coli CSH2 (RE45)) was 0.78 µg/mL. It also gave an MIC (S. marcescens IAM1184; [6]) of 0.78 µg/mL, an MIC (M. Morganii IFO3848; [7]) of 0.39 µg/mL and an MIC (K. pneumoniae No. 42; [8]) of 3.13 µg/mL. The MIC (A. calcoaceticos T59; [9]) was 12.5 µg/mL, the MIC (E. coli CSH2 (RK1)) was 3.13 µg/mL and the MIC (S. aureus 209p JC-1; [10]) was 0.78 µg/mL. It also gave an MIC (S. epidemidis IAM1296; [11]) of 0.39 µg/mL, an MIC (E. coli NIHJ JC-2; [12]) of 0.78 µg/mL and an MIC (B. subtilis ATCC6633; [13]) of 0.39 µg/mL. It also gave an MIC (C. freundii ATCC8090; [14]) of 0.78 µg/mL, an MIC (A. faecalis ATCC3750; [15]) of 3.13 µg/mL and an MIC (S. aureus 167; [16]) of 12.5 µg/mL. For the same molecule, the MIC (M. luteus ATCC 9341; [17]) was 0.2 µg/mL, the MIC (P. aeruginosa NCTC10490; [18]) was 6.25 µg/mL and the MIC (P. vulugaris OX-19; [19]) was 0.78 µg/mL. It also gave an MIC50 (clinically isolated MRSA; [20]) of 6.77 µg/mL and an MIC90 (clinically isolated MRSA; [21]) of 11.8 µg/mL.
